This is an account of results in patent publication US20220267374A1, “IMMUNITY INDUCER AND PHARMACEUTICAL COMPOSITION FOR PREVENTING OR TREATING AGING-RELATED DISEASES” (priority 2019, published 2022).

Test [1] can be described thus: Metabolic test (glucose tolerance test and insulin tolerance test). In kind it is in vivo, C57BL/6 mice. As to conditions: HFD-fed mice, 16 weeks of age, s.c. vaccination at 8 weeks of age; compared to control vaccine; FIG. 2I. As to the method:
Mice were bred individually from 1 week before the test. On the day of the glucose tolerance test (GTT), mice were fasted for 6 hours, followed by intraperitoneal injection of glucose at a dose of 1 g/kg (body weight) in the early afternoon. For the insulin tolerance test (ITT), mice were intraperitoneally administered with human insulin (1 U/kg (body weight)). After administration of glucose or insulin, tail venous blood was collected 0, 15, 30, 60 and 120 minutes later, and the blood glucose level was measured with a glucose analyzer (Sanwa Chemical Research Institute).
A metabolic test was performed using the same method as in “5.” of Reference Example 1, except that C57BL/6 mice (16 weeks of age) bred by feeding HFD from 4 weeks of age and administered with peptide vaccine 1, peptide vaccine 2, or control vaccine by subcutaneous injection at a time point of 8 weeks of age were used. In FIG. 2I, “Cont vaccine” is a C57BL/6 mouse administered with a control vaccine, “Gpnmb vaccine 1” is a C57BL/6 mouse administered with peptide vaccine 1, and “Gpnmb vaccine 2” is a C57BL/6 mouse administered with peptide vaccine 2.

In the next test the test system is GPNMB protein. The experiment in a line: Antibody titer by ELISA in plasma of vaccinated mice. In kind it is in vivo, C57BL/6 mice. As to conditions: vs control vaccine group; KLH-bound peptide 20 μg with Titer Max Gold s.c. at 8 weeks of age, HFD-fed mice; plasma up to 6 weeks; FIG. 2A. As to the method:
First, the antibody titers of the obtained two peptide vaccines were examined. Peptide vaccine 1 or peptide vaccine 2 (20 μg) and Titer Max Gold adjuvant (Titer Max USA) conjugated with KLH as carrier protein for induction of cytotoxic antibody were mixed in two syringes according to the manufacturer's protocol for emulsification. Subsequently, eight-week-old C57BL/6 mice fed with HFD from 4 weeks of age were subcutaneously injected with KLH-binding antigen peptide (20 μg) with a Titer Max Gold adjuvant to induce cytotoxic antibodies. C57BL/6 mice in the control group were subcutaneously injected with a KLH solution (hereinafter, referred to as “control vaccine”) mixed with Titer Max Gold in an equal amount. Plasma was collected from the tail vein of each mouse immediately after administration of the peptide vaccine and after 2, 4, and 6 weeks for antibody titer analysis. The antibody titer produced by injection of each peptide was measured by ELISA. Specifically, first, a 96-well microtiter plate (Nunc-Immuno MicroWell 96-well solid plate, Thermo Scientific) was coated using a carbonate buffer containing peptide vaccine 1 or peptide vaccine 2 bonded to bovine serum albumin (BSA). […] After reacting with the TMB substrate (Sigma-Aldrich, T0440), the optical density was measured at 450 nm (0D450) using a microtiter plate reader (iMark microplate reader, Bio-Rad).
For orientation: In an ELISA, binding on a coated surface is turned into a signal by an enzyme label.

For a further test, the system named is GPNMB-positive cells. The experiment in a line: Analysis of Gpnmb-dependent luciferase activity (in vivo IVIS imaging). Details: species or system Gpnmb-DTR mouse. The conditions noted are these: Reference Example 1; HFD-fed Gpnmb-DTR mice, DT 50 μg/kg i.p. twice (12 and 14 weeks of age), 16 weeks of age; FIG. 1B. As to the method: Gpnmb-DTR mouse bred by feeding normal diet or HFD for 4 weeks, and Gpnmb-DTR mouse bred by feeding HFD for 4 weeks, and then injecting DT (50 μg/kg body weight) at 2-week intervals (12 weeks of age and 14 weeks of age) intraperitoneally twice while continuing to feed HFD (16 weeks of age) were subjected to in vivo luciferase imaging analysis using the IVIS imaging system (Perkin Elmer). Mice were shaved ventrally, anesthetized with isoflurane (Wako Pure Chemicals Industries), and injected intraperitoneally with luciferin (150 mg/kg body weight) according to the manufacturer's instructions (Vivo-Glo; Promega). Luciferase activity was monitored 5 minutes after luciferin administration. Signals were analyzed using Living Image software (Perkin Elmer) to quantify luciferase activity. In FIG. 1B, “Before” is a Gpnmb-DTR mouse before HFD was fed (6 weeks of age), “HFD” is a Gpnmb-DTR mouse that was fed with HFD from 6 weeks of age and bred for 6 weeks (12 weeks of age), and “After DT” is a Gpnmb-DTR mouse that was bred by feeding HFD for 4 weeks and then injecting DT (50 μg/kg body weight) at 2-week intervals (12 weeks of age and 14 weeks of age) intraperitoneally twice while continuing to feed HFD (16 weeks of age). […]

Ends that are not written are not given here.

As to “RSQHLRFPDR (also: KLH conjugate; listed as Mus musculus) [peptide vaccine 2, peptide of positions 150 to 159 of mouse GPNMB protein]”, the “metabolic abnormality induced by HFD intake (glucose tolerance test and insulin tolerance test)” value in test [1] is recorded as “significantly improved”. The “antibody titer against GPNMB protein” value with GPNMB protein was “slightly higher”. On to “diphtheria toxin [DT, reference compound]”, for which the “abdominal luciferase activity (Gpnmb-dependent)” value in the test on GPNMB-positive cells is reported as “attenuated”.
